Legend:
Type in all cases: in vivo
[1] = test system: barnyardgrass (Echinochloa crus-galli); experiment: Test B flooded paddy test plant response
How it was run: (§1)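 Paddy-water application to 2-leaf plants in pots held under 3 cm of flooding; response is a 0–100 visual control rating against controls after 13 to 15 days, and a dash marks a missing result.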

rice (Oryza sativa) = experiment: Test B flooded paddy test plant response
How it was run: as §1

[2] = test system: umbrella sedge (Cyperus difformis); experiment: Test B flooded paddy test plant response
How it was run: as §1

[3] = test system: chickweed (Stellaria media); experiment: Test B postemergence plant response; details: for Plant response rating, Chickweed: Postemergence
How it was run: (§2)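 Postemergence greenhouse test; plants at 2 to 18 cm (1- to 4-leaf stage) given formulated test chemical, held 13 to 15 days, then visually rated against untreated controls on a 0 (no effect) to 100 (complete control) scale; dash means no result.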

[4] = test system: canarygrass (Phalaris minor); experiment: Test B postemergence plant response; details: for Plant response rating, Canarygrass: Postemergence
How it was run: as §2

[5] = test system: winter barley (Hordeum vulgare); experiment: Test B postemergence plant response; details: for Plant response rating, Barley: Postemergence
How it was run: as §2

[6] = test system: windgrass (Apera spica-venti); experiment: Test B postemergence plant response; details: for Plant response rating, Windgrass: Postemergence
How it was run: as §2

[7] = test system: giant foxtail (Setaria faberi); experiment: Test A pre-/postemergence plant response
How it was run: (§3)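 Seeds in loam soil/sand blend treated preemergence by directed soil spray, with simultaneous postemergence spray on 2–10 cm plants at one- to two-leaf stage; compounds in non-phytotoxic solvent with surfactant. Injury visually rated versus untreated controls after about 10 days in greenhouse, 0 (no effect) to 100 (complete control).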

[8] = test system: barnyardgrass (Echinochloa crus-galli); experiment: Test A pre-/postemergence plant response
How it was run: as §3

[9] = test system: large crabgrass (Digitaria sanguinalis); experiment: Test A pre-/postemergence plant response
How it was run: as §3

[10] = test system: velvetleaf (Abutilon theophrasti); experiment: Test A pre-/postemergence plant response
How it was run: as §3

[11] = test system: wheat (Triticum aestivum); experiment: Test A pre-/postemergence plant response
How it was run: as §3

corn (Zea mays) = experiment: Test A pre-/postemergence plant response
How it was run: as §3

[12] = test system: morningglory (Ipomoea coccinea); experiment: Test A pre-/postemergence plant response
How it was run: as §3

[13] = Flood (flooded paddy test), 62 g ai/ha, scale 0 to 100, 0 no effect, 100 complete control
[14] = Flood (flooded paddy test), 250 g ai/ha, scale 0 to 100, 0 no effect, 100 complete control
[15] = 8 g ai/ha, postemergence, 0-100 scale
[16] = 62 g ai/ha, scale 0 to 100, 0 no effect, 100 complete control
[17] = 31 g ai/ha, scale 0 to 100, 0 no effect, 100 complete control
[18] = Postemergence, 31 g ai/ha, 0 to 100 scale, 0 no effect, 100 complete control
[19] = Postemergence, 125 g ai/ha, 0 to 100 scale, 0 no effect, 100 complete control
[20] = Preemergence, 31 g ai/ha, 0 to 100 scale, 0 is no effect, 100 is complete control
[21] = Preemergence, 125 g ai/ha, 0 to 100 scale (0 no effect, 100 complete control)
[22] = Flood (flooded paddy test), 125 g ai/ha, scale 0 to 100, 0 no effect, 100 complete control
[23] = Flood, 31 g ai/ha, scale 0 to 100
[24] = Postemergence, 500 g ai/ha, 0 to 100 scale, 0 no effect, 100 complete control
[25] = Preemergence, 500 g ai/ha, 0 to 100 scale (0 no effect, 100 complete control)

Cc1cc(-c2ccc(Cl)cc2)nn1-c1c(OC(=O)Oc2ccccc2)cnn(C)c1=O [Compound 54]
Plant response rating, Barnyardgrass [1, 13]: 20
Plant response rating, Barnyardgrass [1, 14]: 80
Plant response rating, Rice (rice (Oryza sativa); [13]): 15
Plant response rating, Rice (rice (Oryza sativa); [14]): 80
Plant response rating, Sedge, Umbrella [2, 13]: 0
Plant response rating, Sedge, Umbrella [2, 14]: 0
Chickweed plant response rating [3, 15]: 0
Plant response rating, Chickweed ([3]; 16 g ai/ha, scale 0 to 100): 0
Plant response rating, Chickweed ([3]; 31 g ai/ha, scale 0 to 100): 0
Plant response rating, Chickweed [3, 16]: 0
Canarygrass plant response rating [4, 15]: 0
Plant response rating, Canarygrass ([4]; 16 g ai/ha, scale 0 to 100): 0
Plant response rating, Canarygrass ([4]; 31 g ai/ha, scale 0 to 100): 0
Plant response rating, Canarygrass [4, 16]: 0
Barley plant response rating [5, 15]: 0
Plant response rating, Barley ([5]; 16 g ai/ha, scale 0 to 100, 0 no effect, 100 complete control): 0
Plant response rating, Barley [5, 17]: 0
Plant response rating, Barley [5, 16]: 0
Windgrass plant response rating [6, 15]: 0
Plant response rating, Windgrass ([6]; 16 g ai/ha, scale 0 to 100): 20
Plant response rating, Windgrass ([6]; 31 g ai/ha, scale 0 to 100): 20
Plant response rating, Windgrass [6, 16]: 80
Plant response rating, Foxtail, Giant [7, 18]: 90
Plant response rating, Foxtail, Giant [7, 19]: 100
Plant response rating, Foxtail, Giant [7, 20]: 90
Plant response rating, Foxtail, Giant [7, 21]: 100
Plant response rating, Barnyardgrass [8, 18]: 80
Plant response rating, Barnyardgrass [8, 19]: 100
Plant response rating, Barnyardgrass [8, 20]: 70
Plant response rating, Barnyardgrass [8, 21]: 100
Plant response rating, Crabgrass, Large [9, 18]: 70
Plant response rating, Crabgrass, Large [9, 19]: 90
Plant response rating, Crabgrass, Large [9, 20]: 60
Plant response rating, Crabgrass, Large [9, 21]: 100
Plant response rating, Velvetleaf [10, 18]: 0
Plant response rating, Velvetleaf [10, 19]: 0
Plant response rating, Velvetleaf [10, 20]: 0
Plant response rating, Velvetleaf [10, 21]: 0
Plant response rating, Wheat [11, 18]: 30
Plant response rating, Wheat [11, 19]: 60
Plant response rating, Wheat [11, 20]: 0
Plant response rating, Wheat [11, 21]: 60
Plant response rating, Corn (corn (Zea mays); [18]): 40
Plant response rating, Corn (corn (Zea mays); [19]): 90
Plant response rating, Corn (corn (Zea mays); [20]): 0
Plant response rating, Corn (corn (Zea mays); [21]): 60
Plant response rating, Morningglory [12, 18]: 0
Plant response rating, Morningglory [12, 19]: 0
Plant response rating, Morningglory [12, 20]: 0
Plant response rating, Morningglory [12, 21]: 20

Cc1nn(C)c(=O)c(-n2nc(-c3ccc(Cl)cc3)cc2C)c1O [Compound 15]
Plant response rating, Barnyardgrass [1, 13]: 15
Plant response rating, Barnyardgrass [1, 22]: 40
Plant response rating, Barnyardgrass [1, 14]: 60
Plant response rating, Barnyardgrass [1, 23]: 0
Plant response rating, Rice (rice (Oryza sativa); [13]): 0
Plant response rating, Rice (rice (Oryza sativa); [22]): 15
Plant response rating, Rice (rice (Oryza sativa); [14]): 70
Plant response rating, Rice (rice (Oryza sativa); [23]): 0
Plant response rating, Sedge, Umbrella [2, 13]: 50
Plant response rating, Sedge, Umbrella [2, 22]: 60
Plant response rating, Sedge, Umbrella [2, 14]: 70
Plant response rating, Sedge, Umbrella [2, 23]: 0
Plant response rating, Chickweed [3, 17]: 0
Plant response rating, Chickweed ([3]; 62 g ai/ha, scale 0 to 100): 0
Plant response rating, Chickweed ([3]; 125 g ai/ha, scale 0 to 100): 0
Plant response rating, Chickweed ([3]; 250 g ai/ha, scale 0 to 100): 0
Plant response rating, Canarygrass [4, 17]: 35
Plant response rating, Canarygrass ([4]; 62 g ai/ha, scale 0 to 100): 35
Plant response rating, Canarygrass ([4]; 125 g ai/ha, scale 0 to 100): 85
Plant response rating, Barley [5, 17]: 10
Plant response rating, Barley ([5]; 62 g ai/ha, scale 0 to 100): 10
Plant response rating, Barley ([5]; 125 g ai/ha, scale 0 to 100): 90
Plant response rating, Windgrass [6, 17]: 90
Plant response rating, Windgrass ([6]; 62 g ai/ha, scale 0 to 100): 90
Plant response rating, Windgrass ([6]; 125 g ai/ha, scale 0 to 100): 100
Plant response rating, Windgrass ([6]; 250 g ai/ha, scale 0 to 100): 100
Plant response rating, Foxtail, Giant [7, 19]: 90
Plant response rating, Foxtail, Giant [7, 24]: 100
Plant response rating, Foxtail, Giant [7, 21]: 90
Plant response rating, Foxtail, Giant [7, 25]: 100
Plant response rating, Barnyardgrass [8, 19]: 100
Plant response rating, Barnyardgrass [8, 24]: 100
Plant response rating, Barnyardgrass [8, 21]: 100
Plant response rating, Barnyardgrass [8, 25]: 100
Plant response rating, Crabgrass, Large [9, 19]: 90
Plant response rating, Crabgrass, Large [9, 24]: 100
Plant response rating, Crabgrass, Large [9, 21]: 80
Plant response rating, Crabgrass, Large [9, 25]: 100
Plant response rating, Velvetleaf [10, 19]: 0
Plant response rating, Velvetleaf [10, 24]: 0
Plant response rating, Velvetleaf [10, 21]: 0
Plant response rating, Velvetleaf [10, 25]: 0
Plant response rating, Wheat [11, 19]: 50
Plant response rating, Wheat [11, 24]: 60
Plant response rating, Wheat [11, 21]: 60
Plant response rating, Wheat [11, 25]: 80
Plant response rating, Corn (corn (Zea mays); [19]): 70
Plant response rating, Corn (corn (Zea mays); [24]): 90
Plant response rating, Corn (corn (Zea mays); [21]): 50
Plant response rating, Corn (corn (Zea mays); [25]): 90
Plant response rating, Morningglory [12, 19]: 0
Plant response rating, Morningglory [12, 24]: 0
Plant response rating, Morningglory [12, 21]: 0
Plant response rating, Morningglory [12, 25]: 0
